Source: patent US20020026052A1, “3-cyanoquinolines, 3-cyano-1,6-naphthyridines, and 3-cyano-1,7-naphthyridines as protein kinase inhibitors” (American Home Products Corporation, priority 2000, published 2002)

SMILES | melting point
Cn1ccnc1Sc1ccc(Nc2c(C#N)cnc3cc(-c4ccc(CN5CCN(C(=O)OC(C)(C)C)CC5)cc4)ccc23)cc1Cl [Example 137, tert-butyl 4-{4-[4-({3-chloro-4-[(1-methylimidazol-2-yl)sulfanyl]phenyl}amino)-3-cyano-7-quinolinyl]benzyl}-1-piperazinecarboxylate] | 184 to 186 °C
COc1cc(Nc2c(C#N)cnc3cc(-c4ccc(CN5CC[S+]([O-])CC5)cc4)ccc23)c(Cl)cc1Cl [Example 151, 4-[(2,4-Dichloro-5-methoxyphenyl)amino]-7-{4-[(1-oxido-4-thiomorpholinyl)methyl]phenyl}-3-quinolinecarbonitrile] | 244 to 247 °C
Cn1ccnc1Sc1ccc(Nc2c(C#N)cnc3cc(-c4ccc(CN5CCOCC5)o4)ccc23)cc1Cl [Example 154, 4-{3-Chloro-4-[(1-methyl-1H-imidazol-2-yl)sulfanyl]anilino}-7-[5-(4-morpholinylmethyl)-2-furyl]-3-quinolinecarbonitrile] | 224 to 226 °C
Cn1ccnc1Sc1ccc(Nc2c(C#N)cnc3cc(-c4ccc(CN5CCN(CCO)CC5)o4)ccc23)cc1Cl [Example 157, 4-{3-Chloro-4-[(1-methyl-1H-irnidazol-2-yl)sulfanyl]anilino}-7-(5-{[4-(2-hydroxyethyl)-1-piperazinyl]methyl}-2-furyl)-3-quinolinecarbonitrile] | 206 to 209 °C
Cn1ccnc1Sc1ccc(Nc2c(C#N)cnc3cc(-c4ccc(CN5CCC(O)CC5)s4)ccc23)cc1Cl [Example 159, 4-{3-Chloro-4-[(1-methyl-1H-imidazol-2-yl)sulfanyl]anilino}-7-{5-[(4-hydroxy-1-piperidinyl)methyl]-2-thienyl}-3-quinolinecarbonitrile] | 147 to 149 °C
Cn1ccnc1Sc1ccc(Nc2c(C#N)cnc3cc(-c4ccc(CN5CCCCC5)s4)ccc23)cc1Cl [Example 160, 4-{3-Chloro-4-[(1-methyl-1H-imidazol-2-yl)sulfanyl]anilino}-7-[5-(1-piperidinylmethyl)-2-thienyl]-3-quinolinecarbonitrile] | 100 °C (dec.)
Cn1ccnc1Sc1ccc(Nc2c(C#N)cnc3cc(-c4ccc(CN5CCN(CCO)CC5)s4)ccc23)cc1Cl [Example 161, 4-{3-Chloro-4-[(1-methyl-1H-imidazol-2-yl)sulfanyl]anilino}-7-(5-{[4-(2-hydroxyethyl)-1-piperazinyl]methyl}-2-thienyl)-3-quinolinecarbonitrile] | 145 to 147 °C
N#Cc1cnc2cc(-c3cc(CN4CCOCC4)c(CN4CCOCC4)s3)ccc2c1Nc1ccc(Oc2ccccc2)cc1 [Example 168, 7-[4,5-Bis(4-morpholinylmethyl)-2-thienyl]-4-(4-phenoxyanilino)-3-quinolinecarbonitrile] | 158 to 160 °C
Cn1ccnc1Sc1ccc(Nc2c(C#N)cnc3cc(-c4cc(CN5CCOCC5)c(CN5CCOCC5)s4)ccc23)cc1Cl [Example 169, 7-[4,5-Bis(4-morpholinylmethyl)-2-thienyl]-4-{3-chloro-4-[(1-methyl-1H-irnidazol-2-yl)sulfanyl]anilino}-3-quinolinecarbonitrile] | 173 to 175 °C
Cn1ccnc1Sc1ccc(Nc2c(C#N)cnc3cc(-c4ccc(CN5CCC(O)CC5)cn4)ccc23)cc1Cl [Example 172, 4-{3-Chloro-4-[(1-methyl-1H-imidazol-2-yl)sulfanyl]anilino}-7-{5-[(4-hydroxy-1-piperidinyl)methyl]-2-pyridinyl}-3-quinolinecarbonitrile] | 194 to 196 °C
Cn1ccnc1Sc1ccc(Nc2c(C#N)cnc3cc(-c4ccc(CN5CCC(N6CCCC6)CC5)cn4)ccc23)cc1Cl [Example 173, 4-{3-Chloro-4-[(1-methyl-1H-imidazol-2-yl)sulfanyl]anilino}-7-(5-{[4-(1-pyrrolidinyl)-1-piperidinyl]methyl}-2-pyridinyl)-3-quinolinecarbonitrile] | 183 to 185 °C
Cn1ccnc1Sc1ccc(Nc2c(C#N)cnc3cc(-c4ccc(CN5CCC(C(=O)O)CC5)cn4)ccc23)cc1Cl [Example 175, 1-{[6-(4-{3-chloro-4-[(1-methyl-1H-imidazol-2-yl)sulfanyl]anilino}-3-cyano-7-quinolinyl)-3-pyridinyl]methyl}-4-piperidinecarboxylic acid] | 166 to 168 °C
COc1cc(Nc2c(C#N)cnc3cc(-c4ccc(CN5CCC(C(=O)O)CC5)cn4)ccc23)c(Cl)cc1Cl [Example 177, 1-{6-[3-Cyano-4-(2,4-dichloro-5-methoxyphenylarino)-quinolin-7-yl]-pyridin-3-ylmethyl}-piperidine-4-carboxylic acid] | 150 °C (dec.)
Cn1ccnc1Sc1ccc(Nc2c(C#N)cnc3ccc(-c4ccc(CN5CCOCC5)cn4)cc23)cc1Cl [Example 182, 4-({3-Chloro-4-[(1-methyl-1H-imidazol-2-yl)sulfanyl]phenyl}amino)-6-[5-(4-morpholinylmethyl)-2-pyridinyl]-3-quinolinecarbonitrile] | 238 to 241 °C
COc1cc(Nc2c(C#N)cnc3cc(-c4ccc(N5CCOCC5)nc4)ccc23)c(Cl)cc1Cl [Example 185, 4-(2,4-Dichloro-5-methoxyanilino)-7-[6-(4-morpholinyl)-3-pyridinyl]-3-quinolinecarbonitrile] | > 260 °C
CCN1CCN(c2ccc(-c3ccc4c(Nc5cc(OC)c(Cl)cc5Cl)c(C#N)cnc4c3)cn2)CC1 [Example 197, 4-(2,4-Dichloro-5-methoxyanilino)-7-[6-(4-ethyl-1-piperazinyl)-3-pyridinyl]-3-quinolinecarbonitrile] | 264 to 266 °C
COc1cc(Nc2c(C#N)cnc3cc(-c4ccc(N5CCN(C)CC5)nc4)ccc23)c(Cl)cc1Cl [Example 198, 4-(2,4-Dichloro-5-methoxyanilino)-7-[6-(4-methyl-1-piperazinyl)-3-pyridinyl]-3-quinolinecarbonitrile] | 240 to 242 °C
Cn1ccnc1Sc1ccc(Nc2c(C#N)cnc3cc(-c4cccc(CN5CCOCC5)n4)ccc23)cc1Cl [Example 199, 4-{3-Chloro-4-[(1-methyl-1H-imidazol-2-yl)sulfanyl]anilino}-7-[6-(4-morpholinylmethyl)-2-pyridinyl]-3-quinolinecarbonitrile] | 232 to 234 °C

The next lines start with the values.

melting point | SMILES
202 to 203 °C | CN1CCN(Cc2ccc(-c3ccc4c(Nc5ccc(Sc6nccn6C)c(Cl)c5)c(C#N)cnc4c3)cc2)CC1 [Example 135, 4-{3-chloro-4-[(1-methylimidazol-2-yl)sulfanyl]anilino}-7-{4-[(4-methyl-1-piperazinyl)methyl]phenyl}-3-quinolinecarbonitrile]
130 °C (dec.) | Cn1ccnc1Sc1ccc(Nc2c(C#N)cnc3cc(-c4ccc(C=O)cn4)ccc23)cc1Cl [Example 170, 4-{3-Chloro-4-[(1-methyl-1H-imidazol-2-yl)sulfanyl]anilino}-7-(5-formyl-2-pyridinyl)-3-quinolinecarbonitrile]
125 to 130 °C | CCN1CCN(Cc2ccc(-c3ccc4c(Nc5ccc(Sc6nccn6C)c(Cl)c5)c(C#N)cnc4c3)nc2)CC1 [Example 171, 4-{3-Chloro-4-[(1-methyl-1H-imidazol-2-yl)sulfanyl]anilino}-7-{5-[(4-ethyl-1-piperazinyl)methyl]-2-pyridinyl}-3-quinolinecarbonitrile]
205 to 207 °C | Cn1ccnc1Sc1ccc(Nc2c(C#N)cnc3cc(-c4ccc(Cl)cn4)ccc23)cc1Cl [Example 178, 4-({3-Chloro-4-[(1-methyl-1H-imidazol-2-yl)sulfanyl]phenyl}amino)-7-(5-chloro-2-pyridinyl)-3-quinolinecarbonitrile]
150 °C (dec.) | CCN1CCN(c2ccc(-c3ccc4ncc(C#N)c(Nc5ccc(Sc6nccn6C)c(Cl)c5)c4c3)nc2)CC1 [Example 181, 4-({3-Chloro-4-[(1-methyl-1H-imidazol-2-yl)sulfanyl]phenyl}amino)-6-[5-(4-ethyl-1-piperazinyl)-2-pyridinyl]-3-quinolinecarbonitrile]
260 to 262 °C | CN1CCN(Cc2ccc(-c3ccc4ncc(C#N)c(Nc5ccc(Sc6nccn6C)c(Cl)c5)c4c3)nc2)CC1 [Example 183, 4-({3-Chloro-4-[(1-methyl-1H-imidazol-2-yl)sulfanyl]phenyl}amino)-6-{5-[(4-methyl-1-piperazinyl)methyl]-2-pyridinyl}-3-quinolinecarbonitrile]
276 to 278 °C | Cn1ccnc1Sc1ccc(Nc2c(C#N)cnc3ccc(-c4ccc(N5CCOCC5)nc4)cc23)cc1Cl [Example 184, 4-({3-Chloro-4-[(1-methyl-1H-imidazol-2-yl)sulfanyl]phenyl}amino)-6-[6-(4-morpholinyl)-3-pyridinyl]-3-quinolinecarbonitrile]
197 to 199 °C | CN1CCN(Cc2ccc(-c3ccc4c(Nc5ccc(Sc6nccn6C)c(Cl)c5)c(C#N)cnc4c3)nc2)CC1 [Example 189, 4-{3-Chloro-4-[(1-methyl-1H-imidazol-2-yl)sulfanyl]anilino}-7-1-{5-[(4-methyl-1-piperazinyl)methyl]-2-pyridinyl}-3-quinolinecarbonitrile]
> 250 °C | Cn1ccnc1Sc1ccc(Nc2c(C#N)cnc3cc(-c4ccc(N5CCOCC5)nc4)ccc23)cc1Cl [Example 190, 4-{3-Chloro-4-[(1-methyl-1H-imidazol-2-yl)sulfanyl]anilino}-7-[6-(4-morpholinyl)-3-pyridinyl]-3-quinolinecarbonitrile]
254 to 256 °C | CCN1CCN(c2ccc(-c3ccc4c(Nc5ccc(Sc6nccn6C)c(Cl)c5)c(C#N)cnc4c3)cn2)CC1 [Example 195, 4-{3-Chloro-4-[(1-methyl-1H-imidazol-2-yl)sulfanyl]anilino}-7-[6-(4-ethyl-1-piperazinyl)-3-pyridinyl]-3-quinolinecarbonitrile]
227 to 279 °C | CN1CCN(c2ccc(-c3ccc4c(Nc5ccc(Sc6nccn6C)c(Cl)c5)c(C#N)cnc4c3)cn2)CC1 [Example 196, 4-{3-Chloro-4-[(1-methyl-1H-irnidazol-2-yl)sulfanyl]anilino}-7-[6-(4-methyl-1-piperazinyl)-3-pyridinyl]-3-quinolinecarbonitrile]
